Data published in publication PMC13195669, “GPR3 Ligands Discovered through Combined Virtual and Conformational Biosensor-Based Screening” (Journal of the American Chemical Society, 2026).

System: GPR3 mutant (bulky tryptophan residues in extracellular loop 2)
Test: GPR3 conformational biosensor with tryptophan insertions in extracellular loop 2
Type: cell-based, human
Settings: wildtype vs mutant biosensor; transiently transfected HEK293A
From the text: To develop a hypothesis for the cause of the significant loss in efficacy from VH1 to 33, we computationally predicted the binding poses of both molecules in GPR3 (Figure a). […] In contrast, the cyclopropyl ring of 33 is still buried in the receptor’s transmembrane core. […] We also challenged this binding model of 33 with another GPR3 biosensor variant which harbors the T^3.37A point mutation in transmembrane helix 3. According to an alternative predicted pose of 33 obtained with Boltz-2 (c.f., SI – Materials and Methods section), this mutation should hamper 33 binding to GPR3.
5 Proposed binding poses of VH1 and 33. […]
Cells expressing the conformational GPCR biosensors were grown for 24 h (stable cells) or 48 h (transiently transfected cells) in white 96-well plates and washed with 100 µl of HBSS. […] Three baseline BRET reads were recorded and averaged prior to the addition of serial dilutions of ligands or veh icle control and subsequent BRET reads. […] BRE T donor emission was quantified with a 470/80 nm monochromator. […] Experiments were carried out using a CLARIOstar plate reader.
FRET- and BRET-based measurements of cAMP levels and Gs dissociation/reassociation Transfected cells grown in black 96-well plates were washed twice with 100 µl of HBSS 48 h after transfection and incubated with HBSS. […] FRET donor emission was quantified with a 480/10 nm filter. […]

SMILES: N=c1n(Cc2ccccc2)c2ccccc2n1CC1CC1 [compound 33]
- effect of extracellular loop 2 tryptophan insertions on concentration-response: not affected by these modifications

SMILES: N=c1n(Cc2ccccc2)c2ccccc2n1CC(O)COc1ccc(Cl)cc1 (centres unmarked) [compound 52]
- effect of extracellular loop 2 tryptophan insertions on concentration-response: right-shifted
